Experimental findings from patent US20100119612A1, “NANOPARTICLES COMPRISING NON-CRYSTALLINE DRUG” (Bend Research, Inc, priority 2007, published 2010) are described below.

One may read the logP as the decadic logarithm of the partition coefficient of the neutral form, usually between octanol and water. Read a high logP as higher lipophilicity. In general, solubility refers to the concentration that dissolves in the medium under given conditions. Higher therefore signals a readily soluble substance.

Data set [1] in a line: Measurement of free drug by 19F NMR. The data set is classed as physicochemical. Conditions: after 120 minutes; deuterated PBS with 2.0 wt % NaTC/POPC; 37° C.; 1000 μg/mL Drug 1 if all dissolved.
Procedure: Alternatively, free drug for a nanoparticle suspension can be measured with nuclear magnetic resonance (NMR). In this method, the nanoparticles are equilibrated in an NMR tube with a buffered deuterium oxide solution. A specified amount of a reference standard is also added to the sample, such that the final concentration of the standard in the tube is known. An NMR spectrum is then acquired, and the integration of the drug peak(s) is compared to that of the reference standard to determine the actual dissolved drug concentration. Depending on the drug, either proton NMR (in which case a suitable reference standard is deuterated trimethylsilyl propionic acid) or fluorine NMR (in which case a suitable reference standard is trifiuoroacetic acid) may be employed. Because NMR is sensitive only to materials in the solution state or in micelles, only the drug that is not sequestered in nanopartides is measured by this method.
The solution was mixed, and an ^19F internal standard solution of trifluoroacetic acid (TFA) was added. […] This solution was vortexed 1 minute, and then carefully transferred to an 8 mm glass NMR tube.
Fluorine spectra of the sample was recorded at 282.327 MHz on a Varian Gemini 2000, 300 MHz NMR equipped with a Nalorac 8 mm indirect detection probe. […] Drug resonances were integrated relative to the internal standard peak and the drug concentration determined. […]
Data set [2] can be described thus: In vivo evaluation in dogs (Example 2, oral suspension, plasma LC/MS/MS). Set-up: species or system male beagle dogs. Particulars: fasted dogs, oral gavage, approx. 50 mL of 1.2 mgA/mL suspension. The method, then:
The nanoparticles of Example 2 were evaluated in vivo in dogs. Samples were dosed orally as a suspension to 6 male beagle dogs.
Animals were fasted overnight (at least 10 hours predose) through 8 hours postdose. Approximately 50 mL of suspension (1.2 mgA/mL) was administered to each dog via oral gavage, followed by approximately 5 mL water. Whole-blood samples (7-mL sodium heparin Vacutainer tubes) were taken from the jugular vein before dosing and at 0.5, 1, 2, 3, 4, 6, 8, 12, 24, and 28 hours after dosing. […] was harvested into tubes containing K2EDTA anticoagulant. Blood was maintained on wet ice prior to centrifugation to obtain plasma. Centrifugation began within 1 hour of collection, and samples were centrifuged at 2500 rpm for 15 minutes. Plasma was maintained on dry ice prior to storage at approximately −70° C. Plasma was analyzed using liquid chromatography with tandem mass spectrometry (LC/MS/MS). Crystalline Drug 1 was tested for comparison.

The nature of data set [3]: Log P of the drug. The data set is classed as physicochemical. Conditions: octanol/water; method not stated. The text has this:
By hydrophobic is meant that the Log P of the drug is at least 4. The LogP of the drug may be at least 5, at least 6, or even at least 7. Log P, defined as the base 10 logarithm of the ratio of (1) the drug concentration in an octanol phase to (2) the drug concentration (in its unionized form if the drug may be ionized) in a water phase when the two phases are in equilibrium with each other, is a widely accepted measure of hydrophobicity. Log P may be measured experimentally or calculated using methods known in the art. When using a calculated value for Log P, the highest value calculated using any generally accepted method for calculating Log P is used. […] Preferably the Log P value is calculated by using the average value estimated using Crippen's, Viswanadhan's, and Broto's fragmentation methods.

Data set [4] in a line: Solubility of crystalline drug in 2 wt % NaTC/POPC. The data set is classed as physicochemical. Particulars: 2 wt % NaTC/POPC solution, fassgf or other biorelevant, thermodynamic from solid.

≈ marks a conversion by molar mass, not a printed value. Where only a bound is given, the exact number is not on record here.

As to `CCOC(=O)N1c2ccc(C(F)(F)F)cc2[C@@H](N(Cc2cc(C(F)(F)F)cc(C(F)(F)F)c2)C(=O)OC)C[C@H]1CC` [Drug 1, [2R,4S] 4-[(3,5-bis-trifluoromethyl-benzyl)-methoxycarbonyl-amino]-2-ethyl-6-trifluoromethyl-3,4-dihydro-2H-quinoline-1-carboxylic acid ethyl ester], the “Free Drug” value in data set [1] was 15 µg/mL. Further, in data set [2], the “AUC0-∞” value was “<LOQ”, the Cmax result was “<LOQ*” and the Tmax entry was “<LOQ”. The molecule further displayed a logP in data set [3] of roughly 7.55.
Take `CC[C@@H]1C[C@H](N(Cc2cc(C(F)(F)F)cc(C(F)(F)F)c2)C(C)=O)c2cc(C(F)(F)F)ccc2N1C(=O)OC(C)C` [Drug 2, [2R,4S] 4-[acetyl-(3,5-bis-trifluoromethyl-benzyl)-amino]-2-ethyl-6-trifluoromethyl-3,4-dihydro-2H-quinoline-1-carboxylic acid isopropyl ester]: the logP in data set [3] was roughly 7.55. In data set [4], this molecule returned a solubility of roughly 8 µg/mL (≈ 13.4 µM).
